Test results as given in patent US4221909A, “P-Acetamidobenzoic acid salts of 9-(hydroxyalkyl) purines” (Sloan-Kettering Institute for Cancer Research, priority 1978, dated 1980).
“Also recorded” adds a separate entry of the source.

Experiments:
Type in all cases: cell-based
[1] = tested on: influenza virus; assay: Anti-influenza activity (summary); details: for number of different strains of influenza virus inhibited: concentrations ranging from 1-150 μg/ml
[2] = tested on: immune response; assay: Immunomodulation / immune response potentiation (summary); details: for potentiation of the immune response: three test systems of Table 4; for DIP.PAcBA potentiation of Immunpotentiation: DIP.PAcBA salt vs parent compound
Excerpt: (§1) The following three assay procedures are used to evaluate the ability of the test substances to modulate the activity of several classes of cells in the immune system. In these systems it is possible to identify both immunopotentiating activity (evidence by an enhancement of the parameter examined) as well as immunosuppressant activity (evidenced by an inhibition of the parameter examined).
Table 4 above presents the results of an evaluation of a number of these subject compounds as potentiators of the immune response. Three different test systems were used. The first involves a measure of the ability of the test compound to enhance the ability of mouse lymphocytes to proliferate in response to a plant mitogen (Con A). The second involves measuring the ability of the test compounds to enhance human lymphocyte proliferation in response to a second plant mitogen (PHA). The third system measures the ability of these test substances to enhance macrophage proliferation in response to a natural lymphokine (MMF, Macrophage Mitogenic Factor).

[3] = tested on: Influenza A Swine 1976 (Hlsw -N1); assay: Inhibition of influenza virus replication, Swine 1976
Procedure: Upon infection of a monolayer of tissue culture cells by influenza virus, the cell surface is altered so that guinea pig erythrocytes can be adsorbed to the cell surface. The number of foci of adsorbed cells (hemadsorption foci forming units HAFFU) is a quantitative measure of infectivity. The method is as follows.
When the Linbro tray HeLa cell cultures were ready for experimentation (see cells), the medium was decanted and 1 ml of maintenance medium (MEM with FCS reduced to 3%) containing the compound being tested at a given concentration was added to 4 replicate cultures within a tray.
A series of different drug concentrations ranging from 2.3 to 150 μg/ml were used. Maintenance medium alone was used for control cultures. After the administration of drug and control medium, 0.1 ml of the diluted viral suspension was added to experimental groups and infected control cultures. Saline alone was added to non-infected control cultures. The Linbro trays were then incubated at 37° C. for 18 hours, after which media in all groups was aspirated. Each culture was washed once with PBS. The saline was aspirated and 0.5 ml of a 0.4% v/v guinea pig red blood cell suspension in PBS was added to each culture well. The cultures remained at room temperature for 30 minutes after which the medium was decanted and culture washed […] with PBS to remove all but the specifically bound red cells. After the third wash, maintenance medium was added to all cultures.
A Howard Micrometer eyepiece (C8385) was inserted within the ocular of a Nikon inverted phase contrast microscope. Each culture was scanned with a 4× low paper objective and direct counts of hemadsorbed red cells were counted using the eyepiece grid as a field marker. Partial or complete fields were counted per experimental group depending on the resulting number and density of hemadsorbed cells in the infected control cultures. Magnification of 60× or 150× were chosen to obtain the best conditions for enumerating the hemadsorbed cells. Field factors were calculated for counting hemadsorption at 60× and 150×. At 60× magnification, total field count was calculated using a multiplication factor of 55.5. At 150× magnification the multiplication factor was 273. The multiplication factors of 55.5 and 273 represent the total number of fields at 60× and 150× magnifications, respectively. The number of fields counted ranged from 3 to 5 per well with 3 to 4 wells per treatment group employed (see raw data tables in results section for number of fields examined). Means and standard errors were calculated and the data was evaluated using student's t-test analysis.

[4] = tested on: Mouse spleen cells; assay: Mitogen Induced (Con A) Mouse Lymphocyte Proliferation
Excerpt: as §1
1. Mitogen--Induced Mouse Spleen Cell Assay--Mouse spleen cells contain a population of both B and T lymphocytes which can be stimulated by a number of foreign substances (e.g., plant mitogens such as Con A) to proliferate. This enhanced proliferation is an indication of enhanced cell mediated immunity. The method below describes the system used to evaluate test substances as immunopotentiators.
Concanavalin A (Calbiochem, La Jolla, Calif.), Lot #210073, lyophilized in NaCl, was prepared first as a 1% solution and diluted as a 2× concentration for each dilution (0.5, 1.0, 2.5 μg/ml).
Six to eight week old male Balb/c and C3 H inbred mice were obtained from the following sources: Flow Research Animals, Inc., Dublin, Va.; Charles River Breeding Laboratories, Wilmington, Mass.; Laboratory Supply Company, Indianapolis, Ind.; and Lionel Strong Foundation, San Diego, Calif.
Three to five mice were sacrificed by cervical dislocation and the spleens aseptically removed. Pooled spleens were minced and teased with sterile forceps; then strained through a double layer of nylon mesh. The cell suspension was washed once with 15 ml of RPMI 1640 supplemented with 5% fetal calf serum and antibiotics. Cells were cultured at a concentration of 10^6 cells/0.1 ml/well in micro-plates. Cultures were incubated in the presence or absence of mitogen in a humidified atmosphere containing 5% CO2 for 48 hours. The test compound was added to cultures at various concentrations concommitant with mitogen.
Proliferation was assayed by the degree of incorporation of 1.0 μCi of [^3 H] thymidine over an 18 hour incubation period. Cultures were harvested by a MASH unit (Otto Hiller Co., Madison, Wisconsin) and thymidine incorporation was assayed by liquid scintillation spectrometry. Cultures were performed in triplicate and data are expressed as means plus or minus the strandard error of the experimental means. Drug stimulation indices over control values were also calculated and portrayed graphically.

Structure (SMILES)	anti-influenza activity by themselves [1]	number of different strains of influenza virus inhibited [1]	potentiation of the immune response [2]	% Inhibition ([3]; 0.1-1.0 μg/ml, listed as 15392)	% Inhibition ([3]; 10-100 μg/ml)	% Inhibition ([3]; >100 μg/ml)	DIP.PAcBA potentiation of Anti-Influenza activity [1]	Maximum Percent Change, Mitogen Induced (Con A) Mouse Lymph. Prolif. ([4]; 1.0-10)	Maximum Percent Change, Mitogen Induced (Con A) Mouse Lymph. Prolif. ([4]; 10-100)	Maximum Percent Change, Mitogen Induced (Con A) Mouse Lymph. Prolif. ([4]; .01-1.0)	DIP.PAcBA potentiation of Immunpotentiation [2]	% Inhibition ([3]; 0.1-1.0 μg/ml, listed as 15410)	% Inhibition ([3]; 1.0-10 μg/ml)	Maximum Percent Change, Mitogen Induced (Con A) Mouse Lymph. Prolif. ([4]; 1.0-10, listed as 15417)	Maximum Percent Change, Mitogen Induced (Con A) Mouse Lymph. Prolif. ([4]; 10-100, listed as 15417)	Maximum Percent Change, Mitogen Induced (Con A) Mouse Lymph. Prolif. ([4]; .01-1.0, listed as 15417)	Maximum Percent Change, Mitogen Induced (Con A) Mouse Lymph. Prolif. ([4]; 1.0-10, listed as 15418)	Maximum Percent Change, Mitogen Induced (Con A) Mouse Lymph. Prolif. ([4]; 10-100, listed as 15418)	Maximum Percent Change, Mitogen Induced (Con A) Mouse Lymph. Prolif. ([4]; .01-1.0, listed as 15418)
CCCCCC[C@H]([C@H](C)O)n1cnc2c(=O)[nH]cnc21 (relative stereo) [NPT 15392, Erythro-9-(2-Hydroxy-3-Nonyl)Hypoxanthine]	significant anti-influenza activity	at least 4 different strains	Significant potentiation	30-50%	> 70%	> 70%													
CCCCCC[C@H]([C@H](C)O)n1cnc2c(=O)[nH]cnc21 (relative stereo) [NPT 15410]			Significant potentiation				does not potentiate the anti-influenza activity; also recorded: Both are equally active	40%	40%	140%	Yes	50-70%	30-50%						
CCCCCCC(CO)n1cnc2c(=O)[nH]cnc21 (stereo not drawn) [NPT 15417]	significant anti-influenza activity	at least 4 different strains			> 70%									0%	0%	0%			
CCCCCCC(CO)n1cnc2c(=O)[nH]cnc21 (stereo not drawn) [NPT 15418]			Significant potentiation			> 70%	does potentiate the anti-influenza activity and Yes				Yes						73%	26%	41%
